Usually IC50 stands for the concentration that gives 50% inhibition. Broadly, the EC50 is the midpoint of the concentration-response curve.

For 18 compounds, IC50 and EC50 results are on record in patent publication US20160159774A1 (Celgene Avilomics Research, Inc., priority 2014, published 2016).

Bounds are passed on as bounds.

For one assay, the target named is T1, activated BTK enzyme (Homo sapiens, UniProt Q06187).
T1 construct: purchased Life Technologies PV3363
The assay can be described thus: Omnia assay for potency assessment against BTK. The class given is biochemical. The following applies: BTK inhibition assay; [BTK]=5 nM, [ATP]=40 μM, [Y5-Sox]=10 μM. An excerpt:
Omnia Assay Protocol for Potency Assessment Against BTK
The protocol below describes an assay to measure potency of compounds against the activated BTK enzyme. The mechanics of the assay platform are best described by the vendor (Life Technologies, Carlsbad, Calif.) on their website at the following URLs: www.lifetechnologies.com/us/en/home/life-science/drug-discovery/target-and-lead-identification-and-validation/kinasebiology/kinase-activity-assays/omnia-kinase-assays/omnia-kinase-principle.html and tools.lifetechnologies.com/content/sfs/manuals/omnia_kinase_assay_man.pdf
Briefly, 10× stocks of BTK (PV3363) from Life Technologies, 1.13×ATP (AS00lA) and Sox conjugated peptide substrates, Y5-Sox, (KZN305l) were prepared in 1× kinase reaction buffer consisting of 20 mM Tris, pH 7.5, 5 mM MgCl2, 1 mM EGTA, 5 mM (3-glycerophosphate, 5% glycerol (10× stock, KB002A) and 0.2 mM DTT (DS00lA). 5 μL of each enzyme were pre-incubated in a Corning (#3574) 384-well, white, non-binding surface microtiter plate (Corning, N.Y.) for 30 min. at room temperature with a 0.5 μL volume of 50% DMSO or serially diluted compounds prepared in 50% DMSO. Kinase reactions were started with the addition of […] of the ATP/Tyr-Sox peptide substrate Y5 mix and monitored every 71 seconds for 60 minutes at λex360/λem485 in a Synergy4 plate reader from BioTek (Winooski, Vt.). At the conclusion of each assay, progress curves from each well were examined for linear reaction kinetics and fit statistics (R2, 95% confidence interval, absolute sum of squares). Initial velocity (0 minutes to ˜30 minutes) from each reaction was determined from the slope of a plot of relative fluorescence units vs time (minutes) and then plotted against inhibitor concentration to estimate IC50 from log [Inhibitor] vs Response, Variable Slope model in GraphPad Prism from GraphPad Software (San Diego, Calif.).
Reagent conditions for the assay are:
[BTK]=5 nM, [ATP]=40 μM, [Y5-Sox]=10 μM (ATP KMapp˜36 μM).
The compound numbers correspond to the compound numbers in the examples.

For assay [1], the target named is T2, BTK in Ramos human Burkitt lymphoma cells (Homo sapiens, UniProt Q06187).
T2 construct: Compounds of this invention were assayed in Ramos human Burkitt lymphoma cells; endogenous in cells; host or cells: Ramos human Burkitt lymphoma cells
The assay can be described thus: BTK Ramos cellular assay (BTK occupancy). The settings on record: concentration producing 50% occupancy of BTK, 1 hour incubation with compound. The class given is cell-based. How it is done:
BTK activity in Ramos cells, in the presence of a compound of the invention, can be measured by 3 different methods: 1) inhibition of autophosphorylation of BTK; 2) inhibition of phosphorylation of the immediate BTK surrogate PLCγ2; and 3) BTK occupancy. […] In this instance, BTK occupancy was chosen and is described below.
Compounds of this invention were assayed in Ramos human Burkitt lymphoma cells. Ramos cells were grown in suspension in T175 flasks, spun down, resuspended to a concentration of 2×10^6 cells per mL in serum-free media and incubated for 1 hour. Compound was added to Ramos cells to a final concentration of 500, 166.7, 55.6, 18.5, 6.2, 2.1, and 0.7 nM. Ramos cells were incubated with compound for 1 hour, washed with PBS and lysed in 1004 of BioRad lysis Buffer. Cell lysates were incubated with a biotinylated covalent probe (compound 1-215 disclosed in U.S. published application number 2010/0029610, incorporated by reference in its entirety) at a final concentration of 1 μM in a PBS, 0.05% Tween-20, 1% BSA solution for 1 h at room temperature. Standards and samples were transferred to a streptavidin-coated 96-well ELISA plate and mixed while shaking for 1 h at room temperature. The α-Btk antibody (BD 611116, 1:1000 dilution in PBS+0.05% Tween-20+0.5% BSA) was then added and incubated for 1 h at room temperature. After wash, goat α-mouse-HRP (1:5000 dilution in PBS+0.05% Tween-20+0.5% BSA) was added and incubated for 1 h at room temperature. The ELISA was developed with addition of tetramethyl benzidine (TMB) followed by Stop Solution and read at OD 450 nm. The standard curve (11.7-3000 pg/μL) was generated with human full-length recombinant Btk protein and plotted using a 4 parameter curve fit in Gen5 software. Uninhibited Btk detected from samples was normalized to μg total protein as determined by BCA protein analysis (Pierce Cat. 23225).
The results of this assay show the concentration of compound producing 50% occupancy of BTK. This level of occupancy empirically translates to a level of 50% inhibition of BTK activity (both as measured by autophosphorylation and by phosphorylation of PLCγ2). […] The compound numbers correspond to the compound numbers in the examples.

T1 sequence (Q06187 whole entry): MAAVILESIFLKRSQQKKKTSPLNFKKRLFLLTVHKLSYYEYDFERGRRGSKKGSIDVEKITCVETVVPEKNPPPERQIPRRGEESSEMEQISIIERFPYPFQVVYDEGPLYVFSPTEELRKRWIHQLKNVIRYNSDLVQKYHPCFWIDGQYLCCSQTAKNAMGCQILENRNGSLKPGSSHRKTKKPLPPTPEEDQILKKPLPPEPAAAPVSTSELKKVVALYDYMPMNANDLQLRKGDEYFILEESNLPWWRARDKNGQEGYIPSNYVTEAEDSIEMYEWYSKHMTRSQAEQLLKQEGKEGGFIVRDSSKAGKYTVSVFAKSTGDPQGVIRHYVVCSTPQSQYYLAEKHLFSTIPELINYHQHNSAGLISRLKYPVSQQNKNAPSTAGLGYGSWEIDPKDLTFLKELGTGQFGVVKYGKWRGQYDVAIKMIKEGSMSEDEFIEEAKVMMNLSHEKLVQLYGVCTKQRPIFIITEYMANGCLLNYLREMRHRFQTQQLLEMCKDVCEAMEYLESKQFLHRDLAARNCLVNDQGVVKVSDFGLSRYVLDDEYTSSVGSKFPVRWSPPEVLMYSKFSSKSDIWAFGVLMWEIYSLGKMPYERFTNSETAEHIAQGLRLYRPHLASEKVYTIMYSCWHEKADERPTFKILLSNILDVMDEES
T2 sequence (Q06187 whole entry): as above

For the compound `C=CC(=O)N1CCC[C@@H](Nc2nc(Nc3ccc4c(c3)CCCN(C)C4)ncc2F)C1` [Compound I-38, (R)-1-(3-((5-Fluoro-2-((2-methyl-2,3,4,5-tetrahydro-1H-benzo[c]azepin-7-yl)amino)pyrimidin-4-yl)amino)piperidin-1-yl)prop-2-en-1-one], the IC50 on activated BTK enzyme was less than 10 nM. Also, the EC50 in assay [1] is less than 10 nM.

For the compound `C=CC(=O)N1CCC[C@@H](Nc2nc(Nc3ccc4c(c3)CN(CCF)C4)ncc2F)C1` [Compound I-39, (R)-1-(3-((5-Fluoro-2-((2-(2-fluoroethyl)isoindolin-5-yl)amino)pyrimidin-4-yl)amino)piperidin-1-yl)prop-2-en-1-one], the IC50 on activated BTK enzyme was less than 10 nM. Moreover, in assay [1], the EC50 was in the range of 10 to 100 nM.

Turning to `C=CC(=O)N1CCC[C@@H](Nc2nc(Nc3ccc4c(c3)CN(C3(C)CCOCC3)C4)ncc2F)C1` [Compound I-40, (R)-1-(3-(5-Fluoro-2-(2-(4-methyltetrahydro-2H-pyran-4-yl)isoindolin-5-ylamino)pyrimidin-4-ylamino)piperidin-1-yl)prop-2-en-1-one], on activated BTK enzyme, the IC50 was less than 10 nM. In addition, the EC50 in assay [1] was less than 10 nM.

Regarding `C=CC(=O)N1CCC[C@@H](Nc2nc(Nc3ccc4c(c3)C(C)(C)N(C)C4(C)C)ncc2F)C1` [Compound I-41, (R)-1-(3-(5-Fluoro-2-(1,1,2,3,3-pentamethylisoindolin-5-ylamino)pyrimidin-4-ylamino)piperidin-1-yl)prop-2-en-1-one], the IC50 at activated BTK enzyme is less than 10 nM. For the same compound, in assay [1], the EC50 is 10 to 100 nM.

Turning to `C=CC(=O)N1CCC[C@@H](Nc2nc(Nc3ccc4c(c3)CCN(C3CCC3)C4)ncc2F)C1` [Compound I-42, (R)-1-(3-((2-((2-cyclobutyl-1,2,3,4-tetrahydroisoquinolin-6-yl)amino)-5-fluoropyrimidin-4-yl)amino)piperidin-1-yl)prop-2-en-1-one], at activated BTK enzyme, the IC50 was less than 10 nM. Also, the EC50 in assay [1] was less than 10 nM.

Take `C=CC(=O)N1CCC[C@@H](Nc2nc(Nc3ccc4c(c3)CCN(CC3CC3)C4)ncc2F)C1` [Compound I-43, (R)-1-(3-((2-((2-(cyclopropylmethyl)-1,2,3,4-tetrahydroisoquinolin-6-yl)amino)-5-fluoropyrimidin-4-yl)amino)piperidin-1-yl)prop-2-en-1-one]: the concentration for half-maximal inhibition (IC50) at activated BTK enzyme is less than 10 nM. In addition, the EC50 in assay [1] is less than 10 nM.

In the case of `C=CC(=O)N1CCC[C@@H](Nc2nc(Nc3ccc4c(c3)CCN(C3CC3)C4)ncc2F)C1` [Compound I-44, (R)-1-(3-((2-((2-Cyclopropyl-1,2,3,4-tetrahydroisoquinolin-6-yl)amino)-5-fluoropyrimidin-4-yl)amino)piperidin-1-yl)prop-2-en-1-one], at activated BTK enzyme, the IC50 was less than 10 nM. Also, in assay [1], the EC50 is 10 to 100 nM.

As for `C=CC(=O)N1CCC[C@@H](Nc2nc(Nc3ccc4c(c3)CCN(C(C)(C)C)C4)ncc2F)C1` [Compound I-45, (R)-1-(3-((2-((2-(tert-Butyl)-1,2,3,4-tetrahydroisoquinolin-6-yl)amino)-5-fluoropyrimidin-4-yl)amino)piperidin-1-yl)prop-2-en-1-one], the IC50 on activated BTK enzyme was less than 10 nM. Moreover, the EC50 in assay [1] was less than 10 nM.

In the case of `C=CC(=O)N1CCC[C@@H](Nc2nc(Nc3ccc4c(c3)CN(C3CCC3)CC4)ncc2F)C1` [Compound I-46, (R)-1-(3-(2-(2-Cyclobutyl-1,2,3,4-tetrahydroisoquinolin-7-ylamino)-5-fluoropyrimidin-4-ylamino)piperidin-1-yl)prop-2-en-1-one], the IC50 on activated BTK enzyme is less than 10 nM. Moreover, the EC50 in assay [1] was less than 10 nM.

On to `C=CC(=O)N1CCC[C@@H](Nc2nc(Nc3ccc4c(c3)CCCN(CC3COC3)C4)ncc2F)C1` [Compound I-50, (R)-1-(3-((5-Fluoro-2-((2-(oxetan-3-ylmethyl)-2,3,4,5-tetrahydro-1H-benzo[c]azepin-7-yl)amino)pyrimidin-4-yl)amino)piperidin-1-yl)prop-2-en-1-one], for which the IC50 at activated BTK enzyme is less than 10 nM. The EC50 in assay [1] was in the range of 10 to 100 nM.

As for `C=CC(=O)N1CCC[C@@H](Nc2nc(Nc3ccc4c(c3)CCCN(C3CC3)C4)ncc2F)C1` [Compound I-51, (R)-1-(3-((2-((2-Cyclopropyl-2,3,4,5-tetrahydro-1H-benzo[c]azepin-7-yl)amino)-5-fluoropyrimidin-4-yl)amino)piperidin-1-yl)prop-2-en-1-one], the IC50 at activated BTK enzyme is less than 10 nM. Besides, the 50% effective concentration (EC50) in assay [1] lay in the range of 10 to 100 nM.

For the compound `C=CC(=O)N1CCC[C@@H](Nc2nc(Nc3ccc4c(c3)CCCN(C)C4=O)ncc2F)C1` [Compound I-52, (R)-7-((4-((1-Acryloylpiperidin-3-yl)amino)-5-fluoropyrimidin-2-yl)amino)-2-methyl-2,3,4,5-tetrahydro-1H-benzo[c]azepin-1-one], the IC50 on activated BTK enzyme was less than 10 nM. In assay [1], the EC50 lay in the range of 10 to 100 nM.

`C=CC(=O)N1CCC[C@@H](Nc2nc(Nc3ccc4c(c3)CNCCC4)ncc2F)C1` [Compound I-53, (R)-1-(3-(5-Fluoro-2-(2,3,4,5-tetrahydro-1H-benzo[c]azepin-8-ylamino)pyrimidin-4-ylamino)piperidin-1-yl)prop-2-en-1-one]: at activated BTK enzyme, the IC50 was less than 10 nM. Also, the EC50 in assay [1] was less than 10 nM.

Take `C=CC(=O)N1CCC[C@@H](Nc2nc(Nc3ccc4c(c3)CN(C)CCC4)ncc2F)C1` [Compound I-55, (R)-1-(3-(5-Fluoro-2-(2-methyl-2,3,4,5-tetrahydro-1H-benzo[c]azepin-8-ylamino)pyrimidin-4-ylamino)piperidin-1-yl)prop-2-en-1-one]: on activated BTK enzyme, the IC50 is less than 10 nM. In addition, in assay [1], the EC50 was in the range of 10 to 100 nM.

`C=CC(=O)N1CCC[C@@H](Nc2nc(Nc3ccc4c(c3)CCNCC4)ncc2F)C1` [Compound I-57, (R)-1-(3-(5-Fluoro-2-(2,3,4,5-tetrahydro-1H-benzo[d]azepin-7-ylamino)pyrimidin-4-ylamino)piperidin-1-yl)prop-2-en-1-one]: the IC50 at activated BTK enzyme was less than 10 nM. Besides, the EC50 in assay [1] was in the range of 10 to 100 nM.

On to `C=CC(=O)N1CCC[C@@H](Nc2nc(Nc3ccc4c(c3)CCN(C3CC3)CC4)ncc2F)C1` [Compound I-60, (R)-1-(3-(2-(3-Cyclopropyl-2,3,4,5-tetrahydro-1H-benzo[d]azepin-7-ylamino)-5-fluoropyrimidin-4-ylamino)piperidin-1-yl)prop-2-en-1-one], for which the IC50 at activated BTK enzyme was less than 10 nM. For the same compound, in assay [1], the EC50 is 10 to 100 nM.

Regarding `C=CC(=O)N1CCC[C@@H](Nc2nc(Nc3ccc4c(c3)C(=O)N(C)C4)ncc2F)C1` [Compound I-62], on activated BTK enzyme, the IC50 was less than 10 nM. Besides, the EC50 in assay [1] lay in the range of 101 to 1000 nM.

`C=CC(=O)N1CCC[C@@H](Nc2nc(Nc3ccc4c(c3)C(=O)N(C)C4=O)ncc2F)C1` [Compound I-63, (R)-5-((4-((1-Acryloylpiperidin-3-yl)amino)-5-fluoropyrimidin-2-yl)amino)-2-methylisoindoline-1,3-dione]: the IC50 at activated BTK enzyme was less than 10 nM. In assay [1], the EC50 lay within 10 to 100 nM.
